Test results taken from US8778928B2 (priority 2009, dated 2014).
Where a name gives a salt, the structure may show the parent alone.

Target: α7-subtype of nicotinic receptors (Rattus norvegicus, UniProt Q05941)
Assay: biochemical
Assay type: binding

α7-subtype of nicotinic receptors, sequence (Q05941 23-502): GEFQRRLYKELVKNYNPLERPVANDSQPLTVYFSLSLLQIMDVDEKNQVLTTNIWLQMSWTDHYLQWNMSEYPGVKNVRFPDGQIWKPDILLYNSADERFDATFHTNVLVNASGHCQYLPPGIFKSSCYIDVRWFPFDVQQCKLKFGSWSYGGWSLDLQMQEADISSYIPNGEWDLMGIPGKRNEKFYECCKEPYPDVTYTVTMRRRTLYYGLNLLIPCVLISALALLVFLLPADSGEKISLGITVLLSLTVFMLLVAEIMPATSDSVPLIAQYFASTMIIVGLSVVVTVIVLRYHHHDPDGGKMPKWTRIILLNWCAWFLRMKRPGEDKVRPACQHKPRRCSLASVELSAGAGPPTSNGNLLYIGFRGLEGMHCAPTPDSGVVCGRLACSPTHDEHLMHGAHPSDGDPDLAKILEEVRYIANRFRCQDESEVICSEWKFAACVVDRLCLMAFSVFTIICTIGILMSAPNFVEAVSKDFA

| Structure (SMILES) | IC50 [nM] |
| --- | --- |
| Cn1ccc2ccc(-c3nnc(N4CCN5CCC4CC5)o3)cc21 [Compound A1, 4-[5-(1-Methyl-1H-indol-6-yl)-[1,3,4]oxadiazol-2-yl]-1,4-diaza-bicyclo[3.2.2]nonane fumaric acid salt] | 11 |
| FCCn1ccc2ccc(-c3nnc(N4CCN5CCC4CC5)o3)cc21 [Compound A2, 4-{5-[1-(2-Fluoro-ethyl)-1H-indol-6-yl]-[1,3,4]oxadiazol-2-yl}-1,4-diaza-bicyclo[3.2.2]nonane fumaric acid salt] | 4.2 |
| c1cc2ccc(-c3nnc(N4CCN5CCC4CC5)o3)cc2[nH]1 [Compound A3, 2-(1,4-diazabicyclo[3.2.2]nonan-4-yl)-5-(1H-indol-6-yl)-1,3,4-oxadiazole free base] | 16 |
| CC(C)n1ccc2ccc(-c3nnc(N4CCN5CCC4CC5)o3)cc21 [Compound A4, 2-(1,4-diazabicyclo[3.2.2]nonan-4-yl)-5-(1-isopropylindol-6-yl)-1,3,4-oxadiazole free base] | 39 |
| CCn1ccc2ccc(-c3nnc(N4CCN5CCC4CC5)o3)cc21 [Compound A5, 2-(1,4-diazabicyclo[3.2.2]nonan-4-yl)-5-(1-ethylindol-6-yl)-1,3,4-oxadiazole fumaric acid salt] | 3 |
